Here are results for two molecules from patent publication US20220120736A1, “METHODS AND ASSAYS FOR MODULATING GENE TRANSCRIPTION BY MODULATING CONDENSATES” (Whitehead Institute for Biomedical Research, priority 2018, published 2022).

What all share (assay type): cell-based
The subject of assay [1] is ER LBD-MED1 condensate in U2OS-Lac cells. The assay can be described thus: Live cell imaging of U2OS-Lac cells with endogenously tagged MED1-mEGFP. Particulars: after 10 nM B-Estradiol 45 minutes; 10 uM 4-Hydroxytamoxifen, 30 minutes. Here is the method:
Cells were imaged pre-treatment and 30 minutes after treatment with a 1:1000 dilution of DMSO or 10 uM 4-Hydroxytamoxifen in Estrogen-free DMEM. Quantification was performed in FIJI; the instrument background was subtracted from the average signal intensity in the array, then divided by the instrument background subtracted from an average nuclear signal to yield the normalized signal intensity.

A further assay deals with MYC oncogene. The assay can be described thus: Confocal microscopy of MED1 condensates at MYC. Particulars: presence versus absence of estrogen.
The test system of assay [2] is ER LBD point mutant-MED1 condensate in U2OS-Lac cells. Description: LAC binding assay, ER LBD point mutants tethered to Lac array. Particulars: ER mutants (Y537S, D538G). The protocol:
Constructs were assembled by NEB HIFI cloning in pSV2 mammalian expression vector containing an SV40 promoter driving expression of a CFP-LacI fusion protein. The activation domains and mutant activation domains of ESR1 were fused by the c-terminus to this recombinant protein, joined by the linker sequence […] (SEQ ID NO: 14). For some experiments a variant plasmid with mCherry in place of CFP was used. […] Cells were then plated on fibronectin-coated glass coverslips and transfected using lipofectamine 3000 (Thermofisher L3000015). For high MED1 conditions, a construct with a mammalian expression vector containing a PGK promoter driving the expression of MED1 fused to GFP was co-transfected. […]
For analysis of Lac array data, custom Python scripts were written to process and analyze image data gathered in Lac and tagged-protein channels. […] Segmented regions (also determined by measure.label) were then filtered based on minimum area (150 pixels), maximum area (2000 pixels), circularity (c=4pi*area/perimeter^2; 0.8), and presence in a nucleus as defined by the mask described above. A norm enrichment ratio was calculated by determining the mean intensity of the tagged-protein in the segmented Lac spot and dividing it by the mean intensity of the tagged-protein present in the same whole nucleus.

The subject of assay [3] is mutant (Y537S) and mutant (D538G) ER activation domain. The assay can be described thus: Lac array assay in U2OS cells, mutant ER fusions. To be noted: Y537S and D538G mutants, presence versus absence of estrogen. The source says: A Lac binding domain-CFP-ER activation domain (ER) fusion protein, Lac binding domain-CFP-mutant (Y537S) ER activation domain fusion protein, or Lac binding domain-CFP-ER mutant (D538G) activation domain fusion protein was introduced into U2OS cells bearing the Lac operon array. […] Same experimental conditions as FIG. 39.
Constructs were assembled by NEB HIFI cloning in pSV2 mammalian expression vector containing an SV40 promoter driving expression of a CFP-LacI fusion protein. The activation domains and mutant activation domains of […] were fused by the c-terminus to this recombinant protein, joined by the linker sequence […] (SEQ ID NO: 17). U2OS-268 cells containing a stably integrated array of ˜51,000 Lac-repressor binding sites (a gift of the Spector laboratory) were transfected using lipofectamine 3000 (Thermofisher L3000015). 24 hours after transfection, cells were plated on fibronectin-coated glass coverslips. After 24 hours on glass coverslips, cells were fixed for immunofluorescence with a MED1 antibody (Table S4) as described above and imaged, by spinning disk confocal microscopy.

`CC/C(=C(\c1ccccc1)c1ccc(OCCN(C)C)cc1)c1ccccc1` [tamoxifen]: in assay [1], the “Effect on ER LBD-MED1 condensate, live cell imaging” value is “dissolves the ER LBD-MED1 condensate”.

For `C[C@]12CC[C@@H]3c4ccc(O)cc4CC[C@H]3[C@@H]1CC[C@@H]2O` [estrogen, B-Estradiol], the “MED1 condensate formation at the MYC oncogene” value in the assay with MYC oncogene is listed as “stimulates MED1 condensate formation at the MYC oncogene”. Further, the “MED1 condensate formation at tethered ER LBD, dependence on estrogen” value in assay [2] was “both in the presence and absence of estrogen”. In addition, in assay [3], the “condensate formation, CFP signal of fusion protein” value was “did not significantly affect condensate formation” and the “condensate formation, mediator immunofluorescence” value was “did not significantly affect condensate formation”.
